Data reported in BigSolDB 2.1.

O=c1cc(-c2ccccc2)oc2c1ccc1ccccc12
Conditions	solubility (mole fraction)
in 1,4-dioxane, 288.15 K	0.0128
in 1,4-dioxane, 293.15 K	0.0158
in 1,4-dioxane, 298.15 K	0.019
in 1,4-dioxane, 303.15 K	0.0223
in 1,4-dioxane, 308.15 K	0.0259
in 1,4-dioxane, 313.15 K	0.0307
in 1,4-dioxane, 318.15 K	0.0363
in acetone, 273.15 K	0.00209
in acetone, 278.15 K	0.00273
in acetone, 283.15 K	0.00326
in acetone, 288.15 K	0.00392
in acetone, 293.15 K	0.00466
in acetone, 298.15 K	0.00546
in acetone, 303.15 K	0.00636
in acetone, 308.15 K	0.00736
in acetone, 313.15 K	0.00846
in acetone, 318.15 K	0.00963
in acetonitrile, 273.15 K	0.000628
in acetonitrile, 278.15 K	0.000846
in acetonitrile, 283.15 K	0.00105
in acetonitrile, 288.15 K	0.00126
in acetonitrile, 293.15 K	0.0015
in acetonitrile, 298.15 K	0.00176
in acetonitrile, 303.15 K	0.00204
in acetonitrile, 308.15 K	0.00242
in acetonitrile, 313.15 K	0.00291
in acetonitrile, 318.15 K	0.0034
in cyclohexane, 283.15 K	0.000138
in cyclohexane, 288.15 K	0.000189
in cyclohexane, 293.15 K	0.000246
in cyclohexane, 298.15 K	0.00031
in cyclohexane, 303.15 K	0.000391
in cyclohexane, 308.15 K	0.000477
in cyclohexane, 313.15 K	0.000573
in cyclohexane, 318.15 K	0.000694
in ethanol, 273.2 K	0.000306
in ethanol, 278.2 K	0.000475
in ethanol, 283.2 K	0.000677
in ethanol, 288.2 K	0.000892
in ethanol, 293.2 K	0.00113
in ethanol, 298.2 K	0.00136
in ethanol, 303.2 K	0.00163
in ethanol, 308.2 K	0.00197
in ethanol, 313.2 K	0.00235
in ethanol, 318.2 K	0.00277
in ethyl acetate, 273.15 K	0.00271
in ethyl acetate, 278.15 K	0.00331
in ethyl acetate, 283.15 K	0.00391
in ethyl acetate, 288.15 K	0.00461
in ethyl acetate, 293.15 K	0.00532
in ethyl acetate, 298.15 K	0.00614
in ethyl acetate, 303.15 K	0.0071
in ethyl acetate, 308.15 K	0.00824
in ethyl acetate, 313.15 K	0.00948
in ethyl acetate, 318.15 K	0.0109
in isobutanol, 273.15 K	0.000861
in isobutanol, 278.15 K	0.00118
in isobutanol, 283.15 K	0.00153
in isobutanol, 288.15 K	0.0019
in isobutanol, 293.15 K	0.00231
in isobutanol, 298.15 K	0.00279
in isobutanol, 303.15 K	0.00331
in isobutanol, 308.15 K	0.00396
in isobutanol, 313.15 K	0.00475
in isobutanol, 318.15 K	0.00554
in isopropanol, 273.2 K	0.000474
in isopropanol, 278.2 K	0.000676
in isopropanol, 283.2 K	0.00085
in isopropanol, 288.2 K	0.00105
in isopropanol, 293.2 K	0.00127
in isopropanol, 298.2 K	0.00153
in isopropanol, 303.2 K	0.00181
in isopropanol, 308.2 K	0.0022
in isopropanol, 313.2 K	0.00265
in isopropanol, 318.2 K	0.00313
in methanol, 273.2 K	0.000712
in methanol, 278.2 K	0.000934
in methanol, 283.2 K	0.00119
in methanol, 288.2 K	0.00144
in methanol, 293.2 K	0.00171
in methanol, 298.2 K	0.00203
in methanol, 303.2 K	0.00238
in methanol, 308.2 K	0.00277
in methanol, 313.2 K	0.00335
in methanol, 318.2 K	0.00398
in n-butanol, 273.15 K	0.00106
in n-butanol, 278.15 K	0.00149
in n-butanol, 283.15 K	0.00194
in n-butanol, 288.15 K	0.00244
in n-butanol, 293.15 K	0.00291
in n-butanol, 298.15 K	0.00346
in n-butanol, 303.15 K	0.00412
in n-butanol, 308.15 K	0.00487
in n-butanol, 313.15 K	0.00575
in n-butanol, 318.15 K	0.00673
in n-propanol, 273.2 K	0.000773
in n-propanol, 278.2 K	0.00105
in n-propanol, 283.2 K	0.0014
in n-propanol, 288.2 K	0.00178
in n-propanol, 293.2 K	0.00218
in n-propanol, 298.2 K	0.00261
in n-propanol, 303.2 K	0.0031
in n-propanol, 308.2 K	0.00364
in n-propanol, 313.2 K	0.00424
in n-propanol, 318.2 K	0.005
in toluene, 273.15 K	0.00423
in toluene, 278.15 K	0.00517
in toluene, 283.15 K	0.00623
in toluene, 288.15 K	0.00735
in toluene, 293.15 K	0.00862
in toluene, 298.15 K	0.01
in toluene, 303.15 K	0.0116
in toluene, 308.15 K	0.0136
in toluene, 313.15 K	0.0155
in toluene, 318.15 K	0.0178
